Source: ChEMBL document CHEMBL3352178, “Antidepressant- and anxiolytic-like activity of 7-phenylpiperazinylalkyl-1,3-dimethyl-purine-2,6-dione derivatives with diversified 5-HT₁A receptor functional profile” (Bioorg Med Chem, 2015)
Values belong to the compound of their own block, whether it stands above or below them. Active and inactive are the calls of the source. The calls are words filed in the database; no cut-off is given here.

Legend:
Mus musculus [1] = assay: Induction of hypothermia in mouse assessed as change in body temperature at 5 mg/kg, ip administered 30 mins before test and measured 30 mins post dose; type: functional, organism-based; set-up: dose 5 mg/kg
[2] = molecular target: 5-hydroxytryptamine receptor 7 (Homo sapiens, UniProt P34969); assay: Displacement of [3H]]-5-CT from human cloned 5-HT7R expressed in HEK293 cells; type: cell-based
5-hydroxytryptamine receptor 7, sequence (P34969 whole entry): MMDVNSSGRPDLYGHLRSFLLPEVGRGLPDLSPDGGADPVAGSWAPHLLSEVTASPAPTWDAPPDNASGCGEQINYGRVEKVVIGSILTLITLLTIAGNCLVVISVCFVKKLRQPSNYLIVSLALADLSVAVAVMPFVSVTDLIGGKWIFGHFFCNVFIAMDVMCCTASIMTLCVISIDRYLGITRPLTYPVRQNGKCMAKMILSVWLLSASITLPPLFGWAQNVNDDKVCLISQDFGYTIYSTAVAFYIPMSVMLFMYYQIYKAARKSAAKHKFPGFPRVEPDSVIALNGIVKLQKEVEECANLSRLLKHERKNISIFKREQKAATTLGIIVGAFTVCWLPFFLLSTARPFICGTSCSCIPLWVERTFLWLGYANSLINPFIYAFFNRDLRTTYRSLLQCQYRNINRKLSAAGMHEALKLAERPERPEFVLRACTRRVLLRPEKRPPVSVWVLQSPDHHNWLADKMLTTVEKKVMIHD

Mus musculus [3] = assay: Induction of hypothermia in mouse assessed as change in body temperature at 5 mg/kg, ip administered 30 mins before test and measured 60 mins post dose in presence of 0.3 mg/kg, sc 5HT1A receptor antagonist WAY 100635; type: functional, organism-based
Mus musculus [4] = assay: Induction of hypothermia in mouse assessed as change in body temperature at 5 mg/kg, ip administered 30 mins before test and measured 120 mins post dose; type: functional, organism-based; set-up: dose 5 mg/kg
Mus musculus [5] = assay: Induction of hypothermia in mouse assessed as change in body temperature at 10 mg/kg, ip administered 30 mins before test and measured 30 mins post dose; type: functional, organism-based; set-up: dose 10 mg/kg
Mus musculus [6] = assay: Inhibition of (+/-)-DOI-induced head twitch response in mouse assessed as head twitches per 20 mins at 5 mg/kg, ip dosed 60 mins before (+/-)-DOI injection (reference value: 21.6 +/- 3.4/20 mins); type: functional; conditions: route intraperitoneal
Mus musculus [7] = assay: Antidepressant-like activity in mouse assessed as reduction in immobility time at 5 mg/kg, ip dosed 60 mins before test in presence of 0.3 mg/kg, sc 5HT1A receptor antagonist WAY 100635 by forced swim test; type: functional, organism-based
Mus musculus [8] = assay: Anxiolytic-like activity in mouse assessed as increase in number of punished crossings at 20 mg/kg, ip dosed 60 mins before test by four plate test; type: functional; conditions: route intraperitoneal
Rattus norvegicus [9] = assay: Induction of lower lip retraction in rat assessed as lower lip retraction scores at 1 mg/kg, ip dosed 15 mins before test; type: functional; conditions: route intraperitoneal
Mus musculus [10] = assay: Inhibition of (+/-)-DOI-induced head twitch response in mouse dosed intraperitoneally 60 mins before (+/-)-DOI injection; type: functional
Mus musculus [11] = assay: Induction of hypothermia in mouse assessed as change in body temperature at 2.5 mg/kg, ip administered 30 mins before test and measured 30 mins post dose in presence of 0.3 mg/kg, sc 5HT1A receptor antagonist WAY 100635; type: functional, organism-based
Mus musculus [12] = assay: Induction of hypothermia in mouse assessed as change in body temperature at 10 mg/kg, ip administered 30 mins before test and measured 90 mins post dose; type: functional, organism-based; set-up: dose 10 mg/kg
Mus musculus [13] = assay: Inhibition of (+/-)-DOI-induced head twitch response in mouse assessed as head twitches per 20 mins at 2.5 mg/kg, ip dosed 60 mins before (+/-)-DOI injection (reference value: 21.6 +/- 3.4/20 mins); type: functional; conditions: route intraperitoneal
[14] = molecular target: T1, 5-hydroxytryptamine receptor 1A (Rattus norvegicus, UniProt P19327); assay: Displacement of [3H]-8-OH-DPAT from 5-HT1AR in rat hippocampus; type: tissue-based
T1 sequence (P19327 whole entry): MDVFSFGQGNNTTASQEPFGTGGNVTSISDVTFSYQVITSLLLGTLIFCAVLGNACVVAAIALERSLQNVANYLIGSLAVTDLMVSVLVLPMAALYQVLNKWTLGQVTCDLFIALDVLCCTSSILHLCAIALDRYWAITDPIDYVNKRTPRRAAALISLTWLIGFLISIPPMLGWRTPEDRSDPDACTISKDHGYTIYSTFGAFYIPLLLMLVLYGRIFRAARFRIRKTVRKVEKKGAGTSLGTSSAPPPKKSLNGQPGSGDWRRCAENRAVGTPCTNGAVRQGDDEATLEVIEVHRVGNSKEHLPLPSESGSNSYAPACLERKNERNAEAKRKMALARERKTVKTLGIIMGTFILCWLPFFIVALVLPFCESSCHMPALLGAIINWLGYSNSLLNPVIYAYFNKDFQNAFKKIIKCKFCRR

D(2) dopamine receptor = D(2) dopamine receptor (Rattus norvegicus, UniProt P61169); assay: Displacement of [3H]-spiperone from dopamine D2 receptor in rat striatum
D(2) dopamine receptor, sequence (P61169 whole entry): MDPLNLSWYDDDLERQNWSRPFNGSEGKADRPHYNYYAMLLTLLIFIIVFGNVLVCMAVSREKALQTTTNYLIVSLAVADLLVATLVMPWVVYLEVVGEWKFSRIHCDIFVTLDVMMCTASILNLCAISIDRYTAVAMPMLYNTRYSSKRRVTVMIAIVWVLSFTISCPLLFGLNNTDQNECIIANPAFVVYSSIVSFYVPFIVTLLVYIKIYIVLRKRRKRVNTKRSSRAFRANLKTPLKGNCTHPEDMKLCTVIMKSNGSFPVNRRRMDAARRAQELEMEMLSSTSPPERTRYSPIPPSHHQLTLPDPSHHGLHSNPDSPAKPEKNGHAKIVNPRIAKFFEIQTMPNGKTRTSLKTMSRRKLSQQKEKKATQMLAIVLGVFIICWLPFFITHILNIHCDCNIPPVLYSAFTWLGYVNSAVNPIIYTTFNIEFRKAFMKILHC

Mus musculus [15] = assay: Effect on spontaneous locomotor activity in mouse at 20 mg/kg, ip; type: ADME, organism-based; set-up: dose 20 mg/kg, route intraperitoneal; conditions: in vivo
Mus musculus [16] = assay: Anxiolytic-like activity in mouse assessed as increase in number of punished crossings at 20 mg/kg, ip dosed 60 mins before test in presence of 0.3 mg/kg, sc 5HT1A receptor antagonist WAY 100635 by four plate test; type: functional, organism-based
Mus musculus [17] = assay: Induction of hypothermia in mouse assessed as change in body temperature at 5 mg/kg, ip administered 30 mins before test and measured 30 mins post dose in presence of 0.3 mg/kg, sc 5HT1A receptor antagonist WAY 100635; type: functional, organism-based
Mus musculus [18] = assay: Induction of hypothermia in mouse assessed as change in body temperature at 5 mg/kg, ip administered 30 mins before test and measured 90 mins post dose; type: functional, organism-based; set-up: dose 5 mg/kg
Mus musculus [19] = assay: Induction of hypothermia in mouse assessed as change in body temperature at 2.5 mg/kg, ip administered 30 mins before test and measured 90 mins post dose; type: functional, organism-based; set-up: dose 2.5 mg/kg
Mus musculus [20] = assay: Induction of hypothermia in mouse assessed as change in body temperature at 10 mg/kg, ip administered 30 mins before test and measured 120 mins post dose; type: functional, organism-based; set-up: dose 10 mg/kg
Mus musculus [21] = assay: Inhibition of (+/-)-DOI-induced head twitch response in mouse assessed as head twitches per 20 mins at 10 mg/kg, ip dosed 60 mins before (+/-)-DOI injection (reference value: 21.6 +/- 3.4/20 mins); type: functional; conditions: route intraperitoneal
Mus musculus [22] = assay: Induction of hypothermia in mouse assessed as change in body temperature at 2.5 mg/kg, ip administered 30 mins before test and measured 60 mins post dose; type: functional, organism-based; set-up: dose 2.5 mg/kg
[23] = molecular target: 5-hydroxytryptamine receptor 6 (Homo sapiens, UniProt P50406); assay: Displacement of [3H]LSD from human cloned 5-HT6R expressed in HEK293 cells; type: cell-based
5-hydroxytryptamine receptor 6, sequence (P50406 whole entry): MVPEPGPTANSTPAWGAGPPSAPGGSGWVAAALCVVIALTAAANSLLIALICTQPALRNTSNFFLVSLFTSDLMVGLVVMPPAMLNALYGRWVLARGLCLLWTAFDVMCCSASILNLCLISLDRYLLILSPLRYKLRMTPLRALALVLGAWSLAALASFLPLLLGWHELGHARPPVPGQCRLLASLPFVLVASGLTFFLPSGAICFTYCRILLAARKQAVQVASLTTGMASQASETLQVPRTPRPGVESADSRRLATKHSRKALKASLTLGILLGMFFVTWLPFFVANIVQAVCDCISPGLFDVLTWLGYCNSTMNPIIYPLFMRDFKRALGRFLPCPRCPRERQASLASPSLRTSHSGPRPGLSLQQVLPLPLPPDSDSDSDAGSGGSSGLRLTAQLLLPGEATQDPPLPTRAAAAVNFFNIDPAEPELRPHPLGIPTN

Mus musculus [24] = assay: Antidepressant-like activity in mouse assessed as reduction in immobility time at 10 mg/kg, ip dosed 60 mins before test by forced swim test; type: functional; set-up: scale not given: the % may be the effect or the level left; conditions: route intraperitoneal
Mus musculus [25] = assay: Induction of hypothermia in mouse assessed as change in body temperature at 2.5 mg/kg, ip administered 30 mins before test and measured 60 mins post dose in presence of 0.3 mg/kg, sc 5HT1A receptor antagonist WAY 100635; type: functional, organism-based
Mus musculus [26] = assay: Inhibition of (+/-)-DOI-induced head twitch response in mouse assessed as head twitches per 20 mins at 20 mg/kg, ip dosed 60 mins before (+/-)-DOI injection (reference value: 21.6 +/- 3.4/20 mins); type: functional; conditions: route intraperitoneal
Mus musculus [27] = assay: Induction of hypothermia in mouse assessed as change in body temperature at 2.5 mg/kg, ip administered 30 mins before test and measured 120 mins post dose; type: functional, organism-based; set-up: dose 2.5 mg/kg
[28] = molecular target: 5-hydroxytryptamine receptor 2A (Rattus norvegicus, UniProt P14842); assay: Displacement of [3H]-ketanserin from 5-HT2AR in rat cortex
5-hydroxytryptamine receptor 2A, sequence (P14842 whole entry): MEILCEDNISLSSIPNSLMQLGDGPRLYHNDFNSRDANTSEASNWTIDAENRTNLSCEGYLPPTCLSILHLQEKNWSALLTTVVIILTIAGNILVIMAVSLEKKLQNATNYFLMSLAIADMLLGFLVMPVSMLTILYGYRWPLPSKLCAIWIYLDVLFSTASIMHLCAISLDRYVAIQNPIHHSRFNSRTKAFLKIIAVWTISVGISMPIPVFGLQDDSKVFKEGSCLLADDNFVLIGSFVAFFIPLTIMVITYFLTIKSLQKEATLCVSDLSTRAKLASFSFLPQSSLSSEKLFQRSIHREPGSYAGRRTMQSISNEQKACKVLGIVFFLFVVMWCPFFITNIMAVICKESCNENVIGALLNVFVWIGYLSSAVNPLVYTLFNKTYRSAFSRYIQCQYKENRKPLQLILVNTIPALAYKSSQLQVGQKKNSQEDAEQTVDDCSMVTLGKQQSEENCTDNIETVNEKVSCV

Mus musculus [29] = assay: Induction of hypothermia in mouse assessed as change in body temperature at 10 mg/kg, ip administered 30 mins before test and measured 60 mins post dose; type: functional, organism-based; set-up: dose 10 mg/kg
Mus musculus [30] = assay: Effect on spontaneous locomotor activity in ip dosed mouse during 2 to 6 mins; type: ADME, organism-based; conditions: in vivo
Rattus norvegicus [31] = assay: Induction of lower lip retraction in rat assessed as lower lip retraction scores at 0.5 mg/kg, ip dosed 15 mins before test; type: functional; conditions: route intraperitoneal
Mus musculus [32] = assay: Induction of hypothermia in mouse assessed as change in body temperature at 2.5 mg/kg, ip administered 30 mins before test and measured 30 mins post dose; type: functional, organism-based; set-up: dose 2.5 mg/kg
Rattus norvegicus [33] = assay: Induction of lower lip retraction in rat assessed as lower lip retraction scores at 1 mg/kg, ip dosed 45 mins after 0.3 mg/kg, sc 5HT1A receptor antagonist WAY 100635; type: functional
Mus musculus [34] = assay: Antidepressant-like activity in mouse assessed as reduction in immobility time at 5 mg/kg, ip dosed 60 mins before test by forced swim test; type: functional; set-up: scale not given: the % may be the effect or the level left; conditions: route intraperitoneal
Mus musculus [35] = assay: Induction of hypothermia in mouse assessed as change in body temperature at 5 mg/kg, ip administered 30 mins before test and measured 60 mins post dose; type: functional, organism-based; set-up: dose 5 mg/kg
Mus musculus [36] = assay: Antidepressant-like activity in mouse assessed as reduction in immobility time at 0.625 mg/kg, ip dosed 60 mins before test by forced swim test; type: functional; set-up: scale not given: the % may be the effect or the level left; conditions: route intraperitoneal
Rattus norvegicus [37] = assay: Induction of lower lip retraction in rat assessed as lower lip retraction scores at 10 mg/kg, ip dosed 45 mins after 0.3 mg/kg, sc 5HT1A receptor antagonist WAY 100635; type: functional
Mus musculus [38] = assay: Antidepressant-like activity in mouse assessed as reduction in immobility time at 1.25 mg/kg, ip dosed 60 mins before test by forced swim test; type: functional; set-up: scale not given: the % may be the effect or the level left; conditions: route intraperitoneal
Rattus norvegicus [39] = assay: Inhibition of 8-OH-DPAT-induced lower lip retraction in rat assessed as lower lip retraction scores at 5 mg/kg, ip dosed 45 mins before 8-OH-DPAT; type: functional; conditions: route intraperitoneal
Mus musculus [40] = assay: Induction of hypothermia in mouse assessed as change in body temperature at 10 mg/kg, ip administered 30 mins before test and measured 30 mins post dose in presence of 0.3 mg/kg, sc 5HT1A receptor antagonist WAY 100635; type: functional, organism-based
Rattus norvegicus [41] = assay: Induction of lower lip retraction in rat assessed as lower lip retraction scores at 5 mg/kg, ip dosed 15 mins before test; type: functional; conditions: route intraperitoneal
Mus musculus [42] = assay: Antidepressant-like activity in mouse assessed as reduction in immobility time at 0.625 mg/kg, ip dosed 60 mins before test in presence of 0.3 mg/kg, sc 5HT1A receptor antagonist WAY 100635 by forced swim test; type: functional, organism-based
Mus musculus [43] = assay: Induction of hypothermia in mouse assessed as change in body temperature at 10 mg/kg, ip administered 30 mins before test and measured 60 mins post dose in presence of 0.3 mg/kg, sc 5HT1A receptor antagonist WAY 100635; type: functional, organism-based
Rattus norvegicus [44] = assay: Induction of lower lip retraction in rat assessed as lower lip retraction scores at 10 mg/kg, ip dosed 15 mins before test; type: functional; conditions: route intraperitoneal

Ki [2]: 479 nM | Ki [14]: 1 nM | Ki (D(2) dopamine receptor): 195 nM | Ki [23]: 5150 nM | Ki [28]: 102 nM
SMILES: Cl.Cn1c(=O)c2c(ncn2CCCCN2CCN(c3cccc(Cl)c3)CC2)n(C)c1=O
deltaT (Mus musculus [1]): -2.1 °C | deltaT (Mus musculus [3]): -0.6 °C | deltaT (Mus musculus [4]): -0.2 °C | deltaT (Mus musculus [5]): -2 °C | Activity (Mus musculus [6]): 7.7 | Activity (Mus musculus [7]): inactive | Activity (Mus musculus [8]): 57% | Activity (Rattus norvegicus [9]): 1.5 | inhibition (Mus musculus [10]): Dose-dependent effect | ED50 (Mus musculus [10]; ip, read-out: ID50 (the source's name)): 5.09 mg/kg | deltaT (Mus musculus [11]): -0.8 °C | deltaT (Mus musculus [12]): -1.3 °C | Activity (Mus musculus [13]): 11 | Activity (Mus musculus [15]): Non-toxic | Activity (Mus musculus [16]): inactive | deltaT (Mus musculus [17]): -1.5 °C | deltaT (Mus musculus [18]): -0.6 °C | deltaT (Mus musculus [19]): -0.1 °C | deltaT (Mus musculus [20]): 0.8 °C | Activity (Mus musculus [21]): 3.8 | deltaT (Mus musculus [22]): -0.8 °C | Activity (Mus musculus [24]): 30% | deltaT (Mus musculus [25]): -0.2 °C | Activity (Mus musculus [26]): 3.2 | deltaT (Mus musculus [27]): 0 °C | deltaT (Mus musculus [29]): -1.7 °C | Activity (Mus musculus [30]): Non-toxic | Activity (Rattus norvegicus [31]): 0.3 | deltaT (Mus musculus [32]): -1.8 °C | Activity (Rattus norvegicus [33]): 0.1 | Activity (Mus musculus [34]): 37% | deltaT (Mus musculus [35]): -1.1 °C

Ki [2]: 294 nM | Ki [14]: 1 nM | Ki (D(2) dopamine receptor): 33 nM | Ki [23]: 8990 nM | Ki [28]: 598 nM
SMILES: COc1ccccc1N1CCN(CCCCCn2cnc3c2c(=O)n(C)c(=O)n3C)CC1.Cl
deltaT (Mus musculus [1]): -1 °C | Activity (Mus musculus [36]): 30% | Activity (Rattus norvegicus [37]): 0.1 | deltaT (Mus musculus [4]): 0.3 °C | deltaT (Mus musculus [5]): -2.1 °C | deltaT (Mus musculus [12]): -0.9 °C | Activity (Mus musculus [38]): 35% | Activity (Rattus norvegicus [39]): 2.1 | deltaT (Mus musculus [40]): -1.8 °C | deltaT (Mus musculus [18]): 0.3 °C | deltaT (Mus musculus [20]): -0.4 °C | Activity (Rattus norvegicus [41]): 0.6 | Activity (Mus musculus [42]): inactive | deltaT (Mus musculus [29]): -1 °C | Activity (Mus musculus [30]): Non-toxic | deltaT (Mus musculus [43]): -1.6 °C | Activity (Rattus norvegicus [44]): 0.8 | deltaT (Mus musculus [35]): -0.2 °C
